Blank lines part the entries; values can stand above or below the compound they belong to.
Key:
DrmAB [1] = target: T1, DrmAB (Serratia, UniProt A0A979HMQ0); assay: cryo-EM structure ([…]-3.[…] A); type: binding; details: 1 mM ADP, 10 uM DrmAB; pH 7.4, ~25 C; canonical ATP site between RecA1 and RecA2 of DrmA; also in DNA-bound complex 7S9W
T1 construct: DrmAB heterodimer (~1:1, ~220 kDa) co-expressed in E. coli BL21-AI; Ni-NTA and size exclusion
T1 sequence (A0A979HMQ0 1-1325): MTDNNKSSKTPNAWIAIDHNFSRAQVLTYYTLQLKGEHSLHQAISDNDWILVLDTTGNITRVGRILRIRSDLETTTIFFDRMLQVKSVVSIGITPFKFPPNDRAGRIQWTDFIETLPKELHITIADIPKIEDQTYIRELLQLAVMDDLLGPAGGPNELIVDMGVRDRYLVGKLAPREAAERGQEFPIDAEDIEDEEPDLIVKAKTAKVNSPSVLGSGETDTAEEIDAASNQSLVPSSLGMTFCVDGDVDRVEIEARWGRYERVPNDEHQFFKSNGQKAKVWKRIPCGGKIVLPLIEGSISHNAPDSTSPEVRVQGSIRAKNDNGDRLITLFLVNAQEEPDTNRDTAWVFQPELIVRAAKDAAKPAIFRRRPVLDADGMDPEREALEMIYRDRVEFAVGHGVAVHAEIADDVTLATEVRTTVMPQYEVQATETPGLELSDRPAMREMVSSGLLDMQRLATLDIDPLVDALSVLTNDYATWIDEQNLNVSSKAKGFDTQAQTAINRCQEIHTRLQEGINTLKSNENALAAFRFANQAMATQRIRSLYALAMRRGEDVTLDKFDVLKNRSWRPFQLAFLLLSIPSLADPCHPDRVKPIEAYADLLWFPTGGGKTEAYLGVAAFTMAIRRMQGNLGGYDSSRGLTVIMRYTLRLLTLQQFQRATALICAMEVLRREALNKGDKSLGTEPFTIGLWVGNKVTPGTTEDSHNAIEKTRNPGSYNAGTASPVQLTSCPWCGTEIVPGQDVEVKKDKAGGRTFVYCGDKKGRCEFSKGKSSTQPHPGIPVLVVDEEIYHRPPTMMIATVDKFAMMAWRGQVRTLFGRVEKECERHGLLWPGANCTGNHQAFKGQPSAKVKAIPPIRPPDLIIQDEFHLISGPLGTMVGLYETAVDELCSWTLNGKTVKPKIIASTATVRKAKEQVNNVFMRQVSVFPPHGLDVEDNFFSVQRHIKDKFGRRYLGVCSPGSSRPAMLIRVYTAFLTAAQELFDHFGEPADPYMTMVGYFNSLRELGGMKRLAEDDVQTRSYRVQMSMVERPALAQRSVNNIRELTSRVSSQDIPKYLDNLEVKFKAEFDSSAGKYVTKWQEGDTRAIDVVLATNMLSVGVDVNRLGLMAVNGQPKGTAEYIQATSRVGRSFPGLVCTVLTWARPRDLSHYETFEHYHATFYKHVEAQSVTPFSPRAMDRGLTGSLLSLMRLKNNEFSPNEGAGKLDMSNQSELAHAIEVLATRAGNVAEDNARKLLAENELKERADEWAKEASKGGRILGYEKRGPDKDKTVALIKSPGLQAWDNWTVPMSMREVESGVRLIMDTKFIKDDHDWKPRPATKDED
T1 sequence (A0A979HMQ1 1-619 partner): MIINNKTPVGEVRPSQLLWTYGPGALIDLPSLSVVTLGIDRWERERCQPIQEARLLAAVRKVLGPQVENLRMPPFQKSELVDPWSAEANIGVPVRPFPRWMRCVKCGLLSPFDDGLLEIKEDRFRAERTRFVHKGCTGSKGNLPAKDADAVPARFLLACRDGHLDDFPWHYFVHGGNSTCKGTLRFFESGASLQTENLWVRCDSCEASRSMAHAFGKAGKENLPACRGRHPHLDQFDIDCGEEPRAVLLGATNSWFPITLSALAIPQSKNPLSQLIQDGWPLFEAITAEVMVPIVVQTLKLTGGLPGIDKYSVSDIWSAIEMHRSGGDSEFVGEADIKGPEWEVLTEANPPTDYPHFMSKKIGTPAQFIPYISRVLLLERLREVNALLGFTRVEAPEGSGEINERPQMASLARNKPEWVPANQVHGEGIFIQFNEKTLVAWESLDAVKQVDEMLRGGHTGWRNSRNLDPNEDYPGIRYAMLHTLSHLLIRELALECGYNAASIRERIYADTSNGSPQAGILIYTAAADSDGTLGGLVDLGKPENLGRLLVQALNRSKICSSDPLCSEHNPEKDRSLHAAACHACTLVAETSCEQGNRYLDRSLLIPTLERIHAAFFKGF

[2] = target: DrmB (Serratia sp. SCBI DISARM DUF1998-containing protein) (Serratia sp. SCBI); assay: co-purification (Ni-NTA, then SEC); proteins co-expressed in E. coli BL21-AI; His6-DrmB captured on Ni-NTA (25 mM HEPES pH 8, 600 mM NaCl), then HiLoad 16/600 Superdex 200 (25 mM HEPES pH 8, 150 mM NaCl, 5% glycerol, 1 mM DTT), 4 °C; fractions checked by SDS-PAGE
DrmAB [3] = target: T1, DrmAB; assay: ATPase assay, absorbance at […] nm; type: biochemical; details: needs unmethylated DNA stem loop; mere turnover

Compound: Nc1ncnc2c1ncn2[C@@H]1O[C@H](COP(=O)(O)OP(=O)(O)O)[C@@H](O)[C@H]1O [ADP]
cryo-EM structure (3.3-3.4 A) (DrmAB [1]): We observed strong density corresponding to ADP within our DNA-bound (Fig. 2e) and DNA-free maps

stoichiometry N [2]: 1
Compound: DrmA (Serratia sp. SCBI DISARM helicase) (natural protein)

Compound: Nc1ncnc2c1ncn2[C@@H]1O[C@H](COP(=O)(O)OP(=O)(O)OP(=O)(O)O)[C@@H](O)[C@H]1O [ATP]
ATPase assay, absorbance at 360 nm (DrmAB [3]): Robust ATPase activity is strongly stimulated by unmethylated DNA

From article PMC9142583, “Structural basis for broad anti-phage immunity by DISARM” (Nature Communications, 2022)
